In ChEMBL document CHEMBL1144757, “Stylopeptide 2, a proline-rich cyclodecapeptide from the sponge Stylotella sp” (2008) one finds inhibition data, which are given here for one compound.

Where a SMILES comes first, the peptide text is derived from it.

In test [1] the test system is BT-549. The test is described as follows: Growth inhibition of human BT549 cells at 10 uM. It is filed as functional.
The subject of test [2] is Hs-578T. The experiment in a line: Growth inhibition of human HS578T cells at 10 uM. The class given is functional.

For orientation: inhibition means the change of the read-out against control, counted positive when it falls. Low values mean a weak effect, high ones a strong effect.

Turning to `CC(C)C[C@@H]1NC(=O)[C@H]([C@@H](C)O)NC(=O)[C@@H]2CCCN2C(=O)[C@H](Cc2ccccc2)NC(=O)[C@@H]2CCCN2C(=O)[C@H](Cc2ccc(O)cc2)NC(=O)[C@@H]2CCCN2C(=O)[C@H](Cc2ccccc2)NC(=O)[C@@H]2CCCN2C(=O)[C@H](CC(C)C)NC1=O` [STYLOPEPTIDE 2] (cyclo(FPTLLPFPYP)), the inhibition at 10 µM in test [1] turned out to be 77%; in test [2], 56%.
